Structures are written as SMILES.

The target of this experiment is T1, Komplexbildung von β-Catenin und LEF-1 (Homo sapiens, UniProt P35222).
T1 construct: made in house
T1 sequence (P35222 1-781): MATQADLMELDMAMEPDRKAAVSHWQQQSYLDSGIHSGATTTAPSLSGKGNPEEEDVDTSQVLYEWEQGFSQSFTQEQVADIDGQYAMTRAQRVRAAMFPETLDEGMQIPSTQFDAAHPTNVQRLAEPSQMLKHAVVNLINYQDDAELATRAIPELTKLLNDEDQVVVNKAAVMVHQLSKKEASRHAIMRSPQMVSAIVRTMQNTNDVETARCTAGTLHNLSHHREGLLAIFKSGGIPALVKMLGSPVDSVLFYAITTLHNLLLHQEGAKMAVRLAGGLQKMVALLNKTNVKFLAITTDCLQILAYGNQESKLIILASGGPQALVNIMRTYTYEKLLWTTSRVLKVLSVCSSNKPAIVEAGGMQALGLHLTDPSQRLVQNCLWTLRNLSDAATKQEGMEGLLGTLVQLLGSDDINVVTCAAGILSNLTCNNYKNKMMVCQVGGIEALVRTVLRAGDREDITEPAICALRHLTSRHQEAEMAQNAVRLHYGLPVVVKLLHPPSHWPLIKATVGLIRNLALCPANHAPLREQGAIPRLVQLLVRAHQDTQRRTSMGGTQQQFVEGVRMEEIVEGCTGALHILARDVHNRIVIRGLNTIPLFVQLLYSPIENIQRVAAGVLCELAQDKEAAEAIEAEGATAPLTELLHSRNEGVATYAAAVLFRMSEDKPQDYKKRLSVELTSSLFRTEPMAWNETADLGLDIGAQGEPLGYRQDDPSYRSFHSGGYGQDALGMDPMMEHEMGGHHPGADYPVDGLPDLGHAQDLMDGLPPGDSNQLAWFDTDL
Nature of the experiment: ELISA for inhibition of complex formation of β-Catenin and LEF-1 (recombinant His-tagged proteins, detection with antibody PA2). It counts as binding. Conditions: recombinant LEF-1 adsorbed, 50-100 ng β-Catenin, 10% DMSO final, substances 1 µM to 10 mM, read-out: IC50 Hemmung der Komplexbildung von β-Catenin und LEF/TCF. From the text: Im Einzelnen wurden folgende Untersuchungen durchgerührt: • 1. Identifizierung von separaten, essentiellen Bindungsstellen von β-Catenin für die Interaktion mit LEF-1/TCF-4, mit den 20 und 15 Aminosäure-Repeats von APC oder Conductin/Axin Basierend auf der Röntgen-Kristall-Strukturanalyse der Armadillo-Domäne von β-Catenin (Huber et al., 1997) wurden ausgewählte basische und aromatische Aminosäure-Reste durch Alanin-Reste substituiert und die Punktmutanten auf Interaktion mit den Bindungspartnern von β-Catenin im Hefe-2-Hybrid-System analysiert (Abb. 1). Die Mutationen, welche spezifische Interaktionen blockieren, bilden Cluster in separaten Subregionen der Domäne. Sie markieren die essentiellen Kontaktpunkte in den spezifischen Bindungsstellen für die Interaktion mit LEF/TCF (Lys 435, Arg 469, His 470, Lys 508, Arg 515), mit den 20 Aminosäure-Repeats von APC (Trp 383, Lys 345), mit den 15 Aminosäure-Repeats von APC (Arg 386), oder mit Conductin (Phe 253, His 260, Lys 292). Die erweiterten Interaktionsstellen sind der Abb 1 zu entnehmen. • 2. Analyse der Moleküloberfläche von β-Catenin im Bereich der essentiellen Bindungsstelle für LEF/TCF Ausgehend von den Daten zur Röntgenkristallstruktur von β-Catenin wurde mit den Programmen Grasp und LUDI (MSI) die Moleküloberfläche im Bereich der Bindungsstelle berechnet. Es ist hierdurch gelungen eine hydrophobe Tasche zu identifizieren (Abb.2), die von den folgenden Aminosäuren umrandet ist: Val 358, Met 363, Ala 391, Ala 392, Thr 393, Lys 394, Gln 395, Met 398, Leu 401, Leu 402, Ile 423, Asn 426, Leu 427, Thr 428, Cys 429, Asn 430, Asn 431, Asn 434, Met 437, Val 438. Diese Tasche lokalisiert in engster Nachbarschaft zu der essentiellen Bindungsstelle für LEF/TCF. Sie ist von großer Bedeutung für die Computer-gestützte Durchmusterung von Substanzbibliotheken zur Selektion von Molekülen, die in dieser Tasche binden. Die Idee primär hydrophobe Wechselwirkungen in der Tasche zum Ausgangspunkt zu wählen, hat den energetischen Vorteil, das die Substanzen nicht mit der Hydrathülle der geladenen Aminosäure-Reste der Oberfläche kompetieren müssen. Diese Substanzen stellen somit nach gezielter Modifikation potente Therapeutika zur Behandlung von Tumoren dar, da die Interaktion von LEF/TCF mit β-Catenin ein frühes Ereignis zur Entstehung von Tumoren darstellt. Sie wurden experimentell auf ihre Fähigkeit zur Hemmung der onkogenen Interaktion getestet (ELISA) und sollen modifiziert werden. Das molekulare Modellieren der Substanzen in der Tasche basiert auf der Idee, die Wechselwirkungen in der Tasche selbst zu stabilisieren und zusätzliche Kontakte zu den essentiellen Aminosäure-Resten der LEF/TCF-Bindungsstelle zu schaffen. Durch diese Strategie sollen die Substanzen in ihrer Wirkung optimiert werden. • 3. Identifizierung von Substanzen die in der hydrophoben Tasche binden Es wurden Computer-gestützt Substanzbibliotheken durchmustert und deren Moleküle auf stabilisierende Wechselwirkungen in der hydrophoben Tasche ausgewählt. Die ausgewählten Substanzen wurden auf Hemmung der Komplexbildung von β-Catenin und LEF-1 im ELISA experimentell getestet. […] Diese Kernstruktur besteht aus einem aromatischem Ring (beim Cefamandole am Kohlenstoffatom 17, Numerierung siehe "Positiv-Liste")), einer organischen Komponente, die der Struktur des Ala-Ala Dipeptides ähnelt, und einem β-Lactam- und Thiazolring. Mit dem aromatischen Ring wurde die Substanz in der beschriebenen hydrophoben Tasche eingepaßt. […]
(An ELISA detects its analyte on a solid surface through an enzyme-linked reagent.)
Take `CCCCCCCCCCCCCCCCCC(=O)OC[C@H]1OC(O)[C@H](NC(C)=O)[C@@H](O[C@H](C)C(=O)N[C@@H](C)C(=O)N[C@H](CCC(=O)O)C(N)=O)[C@@H]1O` (stereo partly drawn) [AC-(6-O-Stearoyl)-Muramyl-Ala-D-Isoglutamine]: the IC50 is 100 µM.
The value for `CC1=C(C(=O)O)N2C(=O)[C@@H](NC(=O)[C@H](N)c3ccc(O)cc3)[C@H]2SC1` [Cefadroxil] was 50 to 100 µM; that for `Cn1nnnc1SCC1=C(C(=O)O)N2C(=O)[C@@H](NC(=O)[C@H](OC=O)c3ccccc3)[C@H]2SC1` [Cefamandole-Nafate] was 50 to 100 µM; that for `Cn1nnnc1SCC1=C(C(=O)O)N2C(=O)[C@@H](NC(=O)[C@H](O)c3ccccc3)[C@H]2SC1` [Cefamandole] was 25 µM.
The value for `NC(=O)c1cc[n+](CC2=C(C(=O)O)N3C(=O)[C@@H](NC(=O)[C@@H](c4ccccc4)S(=O)(=O)[O-])[C@H]3SC2)cc1` [Cefsulodine] was 50 to 100 µM.

For the origin of these results see patent EP1214345B1, “AGENTS FOR TREATING HUMAN DISEASES, ESPECIALLY FOR TREATING TUMORS SUCH AS COLONIC CANCERS AND MELANOMAS OR FOR REGENERATING TISSUE AND PROMOTING HAIR GROWTH” (MAX-DELBRÜCK-CENTRUM FÜR MOLEKULARE MEDIZIN, priority 1999, dated 2001).
